Source: patent publication EP0584797A2, “Novel cephalosporin compounds and processes for the preparation thereof” (LUCKY LTD., priority 1992, dated 1994)
Values after ≈ are worked out from the molar mass of the structure shown.

Tests used:
Experiment in all cases: minimal inhibitory concentration, two-fold agar dilution
Type in all cases: cell-based
[1] = test system: Staphylococcus aureus ATCC 6538p; settings: ATCC6538P, Muller-Hinton agar, 37°C, 20 hours, read-out: MIC values against the standard strains
Protocol: (§1) These MIC values were taken by employing a two-fold dilution method: that is, two-fold serial dilutions of each of the test compounds were made and dispersed in a Muller-Hinton agar medium; 2µl of the standard test strain which had the 10⁷ CFU(Colony Forming Unit) per ml was inoculated on the medium; and these were incubated at 37°C for 20 hours.

[2] = test system: Citrobacter freundii ATCC 8090; settings: ATCC8090, Muller-Hinton agar, 37°C, 20 hours, read-out: MIC values against the standard strains
Protocol: as §1

[3] = test system: Shigella flexneri ATCC 11836; settings: ATCC11836, Muller-Hinton agar, 37°C, 20 hours, read-out: MIC values against the standard strains
Protocol: as §1

[4] = test system: Pseudomonas aeruginosa ATCC 27853; settings: ATCC27853, Muller-Hinton agar, 37°C, 20 hours, read-out: MIC values against the standard strains
Protocol: as §1

[5] = test system: Morganella morganii ATCC 8076h; settings: ATCC8076H, Muller-Hinton agar, 37°C, 20 hours, read-out: MIC values against the standard strains
Protocol: as §1

[6] = test system: Proteus vulgaris ATCC 6059; settings: ATCC6059, Muller-Hinton agar, 37°C, 20 hours, read-out: MIC values against the standard strains
Protocol: as §1

[7] = test system: Klebsiella pneumoniae ATCC 10031; settings: ATCC10031, Muller-Hinton agar, 37°C, 20 hours, read-out: MIC values against the standard strains
Protocol: as §1

[8] = test system: Escherichia coli ATCC 10536; settings: ATCC10536, Muller-Hinton agar, 37°C, 20 hours, read-out: MIC values against the standard strains
Protocol: as §1

[9] = test system: Shigella sonnei ATCC 11060; settings: ATCC11060, Muller-Hinton agar, 37°C, 20 hours, read-out: MIC values against the standard strains
Protocol: as §1

[10] = test system: Bacillus megaterium ATCC 9885; settings: Priestia megaterium, ATCC9885; Muller-Hinton agar; 37°C; 20 hours; read-out: MIC values against the standard strains
Protocol: as §1

[11] = test system: Staphylococcus aureus ATCC 10537; settings: ATCC10537, Muller-Hinton agar, 37°C, 20 hours, read-out: MIC values against the standard strains
Protocol: as §1

[12] = test system: Acinetobacter calcoaceticus ATCC 15473; settings: ATCC15473, Muller-Hinton agar, 37°C, 20 hours, read-out: MIC values against the standard strains
Protocol: as §1

[13] = test system: Escherichia coli ATCC 25922; settings: ATCC25922, Muller-Hinton agar, 37°C, 20 hours, read-out: MIC values against the standard strains
Protocol: as §1

[14] = test system: Enterobacter aerogenes ATCC 29751; settings: Klebsiella aerogenes, ATCC29751; Muller-Hinton agar; 37°C; 20 hours; read-out: MIC values against the standard strains
Protocol: as §1

[15] = test system: Salmonella typhimurium ATCC 14028; settings: Salmonella enterica; Muller-Hinton agar; 37°C; 20 hours; read-out: MIC values against the standard strains
Protocol: as §1

[16] = test system: Pseudomonas aeruginosa ATCC 10145; settings: ATCC10145, Muller-Hinton agar, 37°C, 20 hours, read-out: MIC values against the standard strains
Protocol: as §1

[17] = test system: Streptococcus faecalis ATCC 29212; settings: Enterococcus faecalis, ATCC29212; Muller-Hinton agar; 37°C; 20 hours; read-out: MIC values against the standard strains
Protocol: as §1

[18] = test system: Proteus mirabilis ATCC 25933; settings: ATCC25933, Muller-Hinton agar, 37°C, 20 hours, read-out: MIC values against the standard strains
Protocol: as §1

[19] = test system: Staphylococcus epidermidis ATCC 12228; settings: ATCC12228, Muller-Hinton agar, 37°C, 20 hours, read-out: MIC values against the standard strains
Protocol: as §1

[20] = test system: Pseudomonas aeruginosa ATCC 25619; settings: ATCC25619, Muller-Hinton agar, 37°C, 20 hours, read-out: MIC values against the standard strains
Protocol: as §1

[21] = test system: Bacillus cereus ATCC 11778; settings: ATCC11778, Muller-Hinton agar, 37°C, 20 hours, read-out: MIC values against the standard strains
Protocol: as §1

[22] = test system: Enterobacter cloacae ATCC 27508; settings: ATCC27508, Muller-Hinton agar, 37°C, 20 hours, read-out: MIC values against the standard strains
Protocol: as §1

[23] = test system: Providencia rettgeri ATCC 9250; settings: ATCC9250, Muller-Hinton agar, 37°C, 20 hours, read-out: MIC values against the standard strains
Protocol: as §1

[24] = test system: Micrococcus luteus ATCC 9341; settings: ATCC9341, Muller-Hinton agar, 37°C, 20 hours, read-out: MIC values against the standard strains
Protocol: as §1

[25] = test system: Serratia marcescens ATCC 27117; settings: ATCC27117, Muller-Hinton agar, 37°C, 20 hours, read-out: MIC values against the standard strains
Protocol: as §1

Row | Structure (SMILES) | MIC [1] [µg/mL] | MIC [2] [µg/mL] | MIC [3] [µg/mL] | MIC [4] [µg/mL] | MIC [5] [µg/mL] | MIC [7] [µg/mL] | MIC [8] [µg/mL] | MIC [10] [µg/mL] | MIC [11] [µg/mL] | MIC [12] [µg/mL] | MIC [13] [µg/mL] | MIC [14] [µg/mL] | MIC [15] [µg/mL] | MIC [16] [µg/mL] | MIC [17] [µg/mL] | MIC [19] [µg/mL] | MIC [20] [µg/mL] | MIC [21] [µg/mL] | MIC [22] [µg/mL] | MIC [23] [µg/mL] | further results
1 | CC(C)(O/N=C(\C(=O)N[C@@H]1C(=O)N2C(C(=O)[O-])=C(C[n+]3ccccc3)CS[C@H]12)c1csc(N)n1)C(=O)O [Ceftazidime, reference compound] | 8 (≈ 14.6 µM) | 0.13 (≈ 0.238 µM) | 0.031 (≈ 0.0567 µM) | 1 (≈ 1.83 µM) | ≤ 0.008 | 0.13 (≈ 0.238 µM) | 0.13 (≈ 0.238 µM) | 0.25 (≈ 0.457 µM) | 4 (≈ 7.32 µM) | 2 (≈ 3.66 µM) | 0.13 (≈ 0.238 µM) | 8 (≈ 14.6 µM) | 0.25 (≈ 0.457 µM) | 2 (≈ 3.66 µM) | > 128 | 4 (≈ 7.32 µM) | 1 (≈ 1.83 µM) | 128 (≈ 234 µM) | 0.031 (≈ 0.0567 µM) | ≤ 0.008 | MIC [6]: 0.063 µg/mL (≈ 0.115 µM); MIC [9]: 0.13 µg/mL (≈ 0.238 µM); MIC [18]: 0.063 µg/mL (≈ 0.115 µM); MIC [24]: 0.5 µg/mL (≈ 0.915 µM); MIC [25]: 0.13 µg/mL (≈ 0.238 µM)
2 | CCO/N=C(\C(=O)N[C@@H]1C(=O)N2C(C(=O)[O-])=C(CSc3nc(N)cc(OCC(=O)O)[n+]3C)CS[C@H]12)c1csc(N)n1 [Example 19, 7-[(Z)-2-(2-aminothiazol-4-yl)-2-(ethoxyimino)acetamido]-3-(4-amino-6-carboxymethoxy-1-methylpyrimidinium-2-yl)thiomethyl-3-cephem-4-carboxylate] | 4 (≈ 6.4 µM) | 0.063 (≈ 0.101 µM) | 0.031 (≈ 0.0496 µM) | 16 (≈ 25.6 µM) | ≤ 0.008 | 0.031 (≈ 0.0496 µM) | 0.063 (≈ 0.101 µM) | 0.25 (≈ 0.4 µM) | 2 (≈ 3.2 µM) | 16 (≈ 25.6 µM) | 0.063 (≈ 0.101 µM) | 1 (≈ 1.6 µM) | 0.25 (≈ 0.4 µM) | 32 (≈ 51.2 µM) | 64 (≈ 102 µM) | 2 (≈ 3.2 µM) | 8 (≈ 12.8 µM) | 128 (≈ 205 µM) | ≤ 0.008 | ≤ 0.008 | MIC [6]: 0.063 µg/mL (≈ 0.101 µM); MIC [9]: 0.063 µg/mL (≈ 0.101 µM); MIC [18]: 0.063 µg/mL (≈ 0.101 µM); MIC [24]: 0.13 µg/mL (≈ 0.208 µM); MIC [25]: 0.25 µg/mL (≈ 0.4 µM)
3 | C[n+]1c(-c2ccccc2)cc(N)nc1SCC1=C(C(=O)[O-])N2C(=O)[C@@H](NC(=O)/C(=N\OC(C)(C)C(=O)O)c3csc(N)n3)[C@H]2SC1 [Example 20, 7-[(Z)-2-(2-aminothiazol-4-yl)-2-(carboxyprop-2-oxyimino)acetamido]-3-(4-amino-6-phenyl-1-methylpyrimidinium-2-yl)thiomethyl-3-cephem-4-carboxylate] | 4 (≈ 5.84 µM) | 0.5 (≈ 0.73 µM) | 0.13 (≈ 0.19 µM) | 4 (≈ 5.84 µM) | ≤ 0.008 | 0.13 (≈ 0.19 µM) | 0.25 (≈ 0.365 µM) | 0.13 (≈ 0.19 µM) | 2 (≈ 2.92 µM) | 64 (≈ 93.5 µM) | 0.5 (≈ 0.73 µM) | 4 (≈ 5.84 µM) | 1 (≈ 1.46 µM) | 16 (≈ 23.4 µM) | > 128 | 1 (≈ 1.46 µM) | 2 (≈ 2.92 µM) | 64 (≈ 93.5 µM) | 0.13 (≈ 0.19 µM) | ≤ 0.008 | MIC [6]: 0.5 µg/mL (≈ 0.73 µM); MIC [9]: 0.25 µg/mL (≈ 0.365 µM); MIC [18]: 0.25 µg/mL (≈ 0.365 µM); MIC [24]: 0.25 µg/mL (≈ 0.365 µM); MIC [25]: 2 µg/mL (≈ 2.92 µM)
4 | C[n+]1cc(-c2ccccc2)c(N)nc1SCC1=C(C(=O)[O-])N2C(=O)[C@@H](NC(=O)/C(=N\OC(C)(C)C(=O)O)c3csc(N)n3)[C@H]2SC1 [Example 21, 7-[(Z)-2-(2-aminothiazol-4-yl)-2-(carboxyprop-2-oxyimino)acetamido]-3-(4-amino-5-phenyl-1-methylpyrimidinium-2-yl)thiomethyl-3-cephem-4-carboxylate] | 4 (≈ 5.84 µM) | 0.13 (≈ 0.19 µM) | 0.063 (≈ 0.092 µM) | 8 (≈ 11.7 µM) | ≤ 0.008 | 0.031 (≈ 0.0453 µM) | 0.13 (≈ 0.19 µM) | 0.13 (≈ 0.19 µM) | 1 (≈ 1.46 µM) | 32 (≈ 46.7 µM) | 0.13 (≈ 0.19 µM) | 2 (≈ 2.92 µM) | 0.5 (≈ 0.73 µM) | 16 (≈ 23.4 µM) | > 128 | 2 (≈ 2.92 µM) | 2 (≈ 2.92 µM) | 128 (≈ 187 µM) | 0.016 (≈ 0.0234 µM) | ≤ 0.008 | MIC [6]: 0.25 µg/mL (≈ 0.365 µM); MIC [9]: 0.13 µg/mL (≈ 0.19 µM); MIC [18]: 0.25 µg/mL (≈ 0.365 µM); MIC [24]: 0.5 µg/mL (≈ 0.73 µM); MIC [25]: 0.5 µg/mL (≈ 0.73 µM)
5 | C[C@@H](O/N=C(\C(=O)N[C@@H]1C(=O)N2C(C(=O)[O-])=C(CSc3nc(N)c(N)c(N)[n+]3C)CS[C@H]12)c1csc(N)n1)C(=O)O [Example 82-b, 7-[(Z)-2-(2-aminothiazol-4-yl)-2-{1-carboxyeth-1-oxyimino}acetamido]-3-(4,5,6-triamino-1-methylpyrimidinium-2-yl)thiomethyl-3-cephem-4-carboxylate] | 8 (≈ 12.8 µM) | 0.063 (≈ 0.101 µM) | 0.031 (≈ 0.0496 µM) | 1 (≈ 1.6 µM) | ≤ 0.008 | 0.031 (≈ 0.0496 µM) | 0.031 (≈ 0.0496 µM) | 0.5 (≈ 0.8 µM) | 2 (≈ 3.2 µM) | 8 (≈ 12.8 µM) | 0.031 (≈ 0.0496 µM) | 0.5 (≈ 0.8 µM) | 0.063 (≈ 0.101 µM) | 2 (≈ 3.2 µM) | > 128 | 2 (≈ 3.2 µM) | 1 (≈ 1.6 µM) | 128 (≈ 205 µM) | ≤ 0.008 | ≤ 0.008 | MIC [6]: 0.031 µg/mL (≈ 0.0496 µM); MIC [18]: 0.031 µg/mL (≈ 0.0496 µM); MIC [24]: 0.5 µg/mL (≈ 0.8 µM); MIC [25]: 0.063 µg/mL (≈ 0.101 µM)
6 | CC[C@@H](O/N=C(\C(=O)N[C@@H]1C(=O)N2C(C(=O)[O-])=C(CSc3nc(N)cc[n+]3N)CS[C@H]12)c1csc(N)n1)C(=O)O [Example 88-b, 7-[(Z)-2-(2-aminothiazol-4-yl)-2-{(R)-1-carboxyprop-1-oxyimino}acetamido]-3-(1,4-diaminopyrimidinium-2-yl)thiomethyl-3-cephem-4-carboxylate] | 4 (≈ 6.56 µM) | 0.063 (≈ 0.103 µM) | 0.031 (≈ 0.0508 µM) | 2 (≈ 3.28 µM) | ≤ 0.008 | 0.031 (≈ 0.0508 µM) | 0.063 (≈ 0.103 µM) | 1 (≈ 1.64 µM) | 4 (≈ 6.56 µM) | 8 (≈ 13.1 µM) | 0.031 (≈ 0.0508 µM) | 1 (≈ 1.64 µM) | 0.25 (≈ 0.41 µM) | 2 (≈ 3.28 µM) | > 128 | 2 (≈ 3.28 µM) | 1 (≈ 1.64 µM) | 128 (≈ 210 µM) | 0.016 (≈ 0.0262 µM) | ≤ 0.008 | MIC [9]: 0.063 µg/mL (≈ 0.103 µM); MIC [24]: 1 µg/mL (≈ 1.64 µM); MIC [25]: 0.25 µg/mL (≈ 0.41 µM)
